Measurements published in the NIST ThermoML archive (doi:10.1016/j.jct.2018.07.031).

Tests used:
[1] = refractive index (Na D-line) (dimensionless); xn = mol fraction of the nth substance listed; conditions: 100 kPa, Liquid, Standard Abbe refractometry, x1 = 0.333
[2] = molar heat capacity at constant pressure; xn = mol fraction of the nth substance listed; conditions: 100 kPa, Liquid, DSC, x1 = 0.333
[3] = xn = mol fraction of the nth substance listed; conditions: x1 = 0.333; for surface tension liquid-gas: Drop volume; for viscosity / electrical conductivity / speed of sound / mass density: 100 kPa, Liquid; for viscosity: Capillary tube (Ostwald / Ubbelohde) method; for electrical conductivity: Frequency=0.002 MHz, Alternating current cell with electrodes; for speed of sound: Frequency=3 MHz, Single path-length method; for mass density: Vibrating tube method

C[N+](C)(C)CCO.[Cl-] [choline chloride] + OCC(O)CO
Conditions | electrical conductivity, [3] [S/m] | mass density, [3] [kg/m3] | molar heat capacity at constant pressure, [2] [J/K/mol] | refractive index, [1] | speed of sound, [3] [m/s] | surface tension liquid-gas, [3] [mN/m] | viscosity, [3] [mPa·s]
278.15 K | 0.026 | 1207.05 | 211.5 | – | 2049.6 | 68.01 | 1511
280.65 K | 0.032 | 1205.6 | 212.5 | – | 2042.8 | 67.9 | 1211
283.15 K | 0.0406 | 1204.2 | 213.5 | 1.48809 | 2036.2 | 67.77 | 982.4
285.65 K | 0.0491 | 1202.8 | 214.5 | 1.4875 | 2029.9 | 67.65 | 801.5
288.15 K | 0.0587 | 1201.4 | 215 | 1.48698 | 2024 | 67.5 | 658.4
290.65 K | 0.0703 | 1200 | 216 | 1.48632 | 2018.2 | 67.34 | 543.7
293.15 K | 0.0839 | 1198.55 | 217 | 1.48574 | 2012.6 | 67.2 | 452.6
295.65 K | 0.0992 | 1197.15 | 217.5 | 1.48514 | 2006.9 | 67.1 | 378.5
298.15 K | 0.117 | 1195.75 | 218.5 | 1.48455 | 2001.3 | 66.95 | 319.7
300.65 K | 0.136 | 1194.3 | 219 | 1.48396 | 1995.8 | 66.81 | 271.4
303.15 K | 0.158 | 1192.9 | 220 | 1.48337 | 1990.2 | 66.7 | 232.1
305.65 K | 0.182 | 1191.5 | 221 | 1.48278 | 1984.7 | 66.57 | 199
308.15 K | 0.21 | 1190.15 | 221.5 | 1.48218 | 1979.2 | 66.43 | 171.6
310.65 K | 0.24 | 1188.75 | 222.5 | 1.48159 | 1973.8 | 66.31 | 149
313.15 K | 0.276 | 1187.4 | 223.5 | 1.48098 | 1968.3 | 66.18 | 130
315.65 K | 0.314 | 1186 | 224 | 1.4804 | 1962.8 | 66.05 | 113.8
318.15 K | 0.352 | 1184.65 | 225 | 1.4798 | 1957.4 | 65.93 | 100
320.65 K | 0.394 | 1183.25 | 226 | 1.47921 | 1951.8 | 65.74 | 88.43
323.15 K | 0.439 | 1181.9 | 227 | 1.4786 | 1946.3 | 65.62 | 78.39
325.65 K | 0.487 | 1180.5 | 228 | 1.47801 | 1940.7 | 65.48 | 69.46
328.15 K | 0.544 | 1179.1 | 228.5 | 1.47741 | 1935.2 | 65.38 | 62.06
330.65 K | 0.603 | 1177.7 | 229 | 1.47681 | 1929.6 | 65.23 | 55.63
333.15 K | 0.662 | 1176.35 | 230 | 1.47622 | 1924.1 | 65.1 | 50.05
335.65 K | 0.729 | 1174.95 | 231 | 1.47564 | 1918.5 | 64.97 | 45.19
338.15 K | 0.801 | 1173.55 | 232 | 1.47504 | 1912.9 | 64.84 | 40.94
